For one series, the target named is GLP-1R (Homo sapiens (Human), UniProt P43220). As to the kind of experiment: GLP-1R activation: cAMP increase in CHO cells stably expressing GLP-1R. Format: cell-based. The conditions noted are these: cAMP increase, 10 point dose response, 30 minutes incubation at 37° C., read-out: EC50. In short, it runs like this:
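CHO cells stably expressing GLP-1R were incubated 1 h at 37 °C in medium with 1% BSA, then exposed to compound in a 10-point dose response for 30 min at 37 °C. cAMP rise was detected by HTRF (Gs Dynamic kit). EC50 came from a sigmoidal fit of response against log agonist concentration.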

A short description of series [1]: Microsomal stability (liver microsomal assay, mixed cofactors); predicted hepatic clearance. The format is in vitro ADME. The conditions noted are these: liver microsomes 1.0 mg protein/mL (+UDPGA +NADPH), 1 μM analyte, 37° C.; scaled with human liver weight and hepatic blood flow 1.3 L/hr/kg. In short, it runs like this:
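Compound at 1 μM with human or rat pooled liver microsomes, alamethicin-treated, pH 7.4 phosphate, NADPH-regenerating plus UDPGA cofactors, 37° C, sampled 0–70 min. Parent/internal standard ratio by RapidFire QToF MS; half-life from initial log-linear decay, scaled to intrinsic and predicted hepatic clearance and hepatic extraction.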

GLP-1R, sequence (P43220 24-463): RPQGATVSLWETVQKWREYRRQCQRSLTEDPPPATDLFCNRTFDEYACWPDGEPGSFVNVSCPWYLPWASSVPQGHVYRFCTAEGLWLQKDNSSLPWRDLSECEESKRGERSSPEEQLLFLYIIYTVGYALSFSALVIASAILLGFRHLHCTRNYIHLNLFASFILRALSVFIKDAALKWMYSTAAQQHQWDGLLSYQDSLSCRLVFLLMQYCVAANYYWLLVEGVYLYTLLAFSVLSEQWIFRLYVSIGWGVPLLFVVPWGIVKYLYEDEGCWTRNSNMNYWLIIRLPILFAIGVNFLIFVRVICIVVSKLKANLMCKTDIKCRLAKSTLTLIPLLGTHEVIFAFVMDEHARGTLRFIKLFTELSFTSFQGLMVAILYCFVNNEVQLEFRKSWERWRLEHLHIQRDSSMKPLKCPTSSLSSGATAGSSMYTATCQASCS

In general, EC50 refers to the concentration needed to bring the measured effect to its halfway point. With `COCCn1c(Cc2cc(F)c(-c3cccc4c3OC(C)(c3ccc(C#N)cc3F)O4)cc2F)nc2ccc(C(=O)O)cc21` (stereo not drawn) [Example 81, 2-(4-(2-(4-cyano-2-fluorophenyl)-2-methylbenzo[d][1, 3]dioxol-4-yl)-2,5-difluorobenzyl)-1-(2-methoxyethyl)-1H-benzo[d]imidazole-6-carboxylic acid], the EC50 on GLP-1R came out at 26 nM. In addition, the “Predicted Hepatic Clearance (Pred. Cl.)” value in series [1] was 8.67 mL/min/kg.

In the case of `COCCn1c(Cc2c(F)cc(-c3cccc4c3OC3c5ccc(Cl)cc5OC43)cc2F)nc2ccc(C(=O)O)cc21` (stereo not drawn) [Example 54, 2-(4-(7-chloro-4b,9b-dihydrobenzofuro [3,2-b]benzofuran-1-yl)-2,6-difluorobenzyl)-1-(2-methoxyethyl)-1H-benzo[d]imidazole-6-carboxylic acid], the EC50 at GLP-1R is 628 nM. In series [1], the “Predicted Hepatic Clearance (Pred. Cl.)” value is 3 mL/min/kg.

For `COCCn1c(Cc2c(F)cc(-c3cccc4c3OC3(CCCOc5cc(Cl)ccc53)O4)cc2F)nc2ccc(C(=O)O)cc21` (stereo not drawn) [Example 55, 2-(4-(8-chloro-3,4-dihydro-2H-spiro[benzo[b]oxepine-5,2′-benzo[d][1,3]dioxol]-4′-yl)-2,6-difluorobenzyl)-1-(2-methoxyethyl)-1H-benzo[d]imidazole-6-carboxylic acid], the EC50 at GLP-1R amounted to 1270 nM. In addition, the “Predicted Hepatic Clearance (Pred. Cl.)” value in series [1] is 8.3 mL/min/kg.

Regarding `COCCn1c(Cc2c(F)cc(-c3cccc4c3OC(C)(c3ccc(C#N)cc3F)O4)c(F)c2F)nc2ccc(C(=O)O)cc21` (stereo not drawn) [Example 88, 2-(4-(2-(4-cyano-2-fluorophenyl)-2-methylbenzo[d][1, 3]dioxol-4-yl)-2,3,6-trifluorobenzyl)-1-(2-methoxyethyl)-1H-benzo[d]imidazole-6-carboxylic acid], the 50% effective concentration (EC50) at GLP-1R stood at 12 nM. The “Predicted Hepatic Clearance (Pred. Cl.)” value in series [1] is 8 mL/min/kg.

On to `COCCn1c(Cc2ccc(-c3cccc4c3OC(c3ccc(Cl)cn3)C4)cc2F)nc2ccc(C(=O)O)cc21` (stereo not drawn) [Example 78, 2-(4-(2-(5-chloropyridin-2-yl)-2,3-dihydrobenzofuran-7-yl)-2-fluorobenzyl)-1-(2-methoxyethyl)-1H-benzo[d]imidazole-6-carboxylic acid], for which the EC50 on GLP-1R came out at 1780 nM. The “Predicted Hepatic Clearance (Pred. Cl.)” value in series [1] was 7.17 mL/min/kg.

On to `COCCn1c(Cc2ccc(-c3cccc4c3OC(c3ccc(Cl)cc3F)C4)cc2F)nc2ccc(C(=O)O)cc21` (stereo not drawn) [Example 79, 2-(4-(2-(4-chloro-2-fluorophenyl)-2,3-dihydrobenzofuran-7-yl)-2-fluorobenzyl)-1-(2-methoxyethyl)-1H-benzo[d]imidazole-6-carboxylic acid], for which the EC50 at GLP-1R worked out at 738 nM. The “Predicted Hepatic Clearance (Pred. Cl.)” value in series [1] was 2.33 mL/min/kg.

For `COCCn1c(Cc2c(F)cc(-c3cccc4c3OC(C)(c3ccc(Cl)cn3)O4)cc2F)nc2ccc(C(=O)O)cc21` (stereo not drawn) [Example 64, 2-(4-(2-(5-chloropyridin-2-yl)-2-methylbenzo[d][1, 3]dioxol-4-yl)-2,6-difluorobenzyl)-1-(2-methoxyethyl)-1H-benzo[d]imidazole-6-carboxylic acid], at GLP-1R, the EC50 came out at 111 nM. In addition, the “Predicted Hepatic Clearance (Pred. Cl.)” value in series [1] was 3.67 mL/min/kg.

As to `CC1(c2ccc(C#N)cc2F)Oc2cccc(-c3cc(F)c(Cc4nc5ccc(C(=O)O)cc5n4C[C@@H]4CCO4)c(F)c3F)c2O1` (single isomer, unassigned) [Example 94], the EC50 at GLP-1R is 0.32 nM. In addition, in series [1], the “Predicted Hepatic Clearance (Pred. Cl.)” value is 7 mL/min/kg.

Consider `CCC1(c2ccc(Cl)cc2F)Oc2cccc(-c3cc(F)c(Cc4nc5ccc(C(=O)O)cc5n4CCOC)c(F)c3)c2O1` (stereo not drawn) [Example 53, 2-(4-(2-(4-chloro-2-fluorophenyl)-2-ethylbenzo[d][1,3]dioxol-4-yl)-2,6-difluorobenzyl)-1-(2-methoxyethyl)-1H-benzo[d]imidazole-6-carboxylic acid], for which the EC50 on GLP-1R came to 1290 nM. Moreover, in series [1], the “Predicted Hepatic Clearance (Pred. Cl.)” value is 13 mL/min/kg.

`CC1(c2ccc(Cl)cc2F)Oc2cccc(-c3cc(F)c(Cc4nc5ccc(C(=O)O)cc5n4Cc4ncco4)c(F)c3)c2O1` (stereo not drawn) [Example 69, 2-(4-(2-(4-chloro-2-fluorophenyl)-2-methylbenzo[d][1, 3]dioxol-4-yl)-2,6-difluorobenzyl)-1-(oxazol-2-ylmethyl)-1H-benzo[d]imidazole-6-carboxylic acid]: the EC50 at GLP-1R is 2.5 nM. In addition, in series [1], the “Predicted Hepatic Clearance (Pred. Cl.)” value was 2.5 mL/min/kg.

`COCCn1c(Cc2c(F)cc(-c3cccc4c3OC(C)(c3ccc(Cl)cc3F)O4)cc2F)nc2ccc(C(=O)NS(=O)(=O)C3CC3)cc21` (racemic) [Example 3, 2-(4-(2-(4-chloro-2-fluorophenyl)-2-methylbenzo[d][1, 3]dioxol-4-yl)-2,6-difluorobenzyl)-N-(cyclopropylsulfonyl)-1-(2-methoxyethyl)-1H-benzo[d]imidazole-6-carboxamide]: the EC50 at GLP-1R came to 78 nM. In series [1], the “Predicted Hepatic Clearance (Pred. Cl.)” value is 2 mL/min/kg.

Consider `COCCn1c(Cc2ccc(-c3cccc4c3OC(C)(c3nc5ccccc5n3C)O4)cc2F)nc2ccc(C(=O)O)cc21` (stereo not drawn) [Example 52, 2-[[2-fluoro-4-[2-methyl-2-(1-methylbenzimidazol-2-yl)-1,3-benzodioxol-4-yl]phenyl]methyl]-3-(2-methoxyethyl) benzimidazole-5-carboxylic acid], for which the EC50 at GLP-1R amounted to 2270 nM. Also, in series [1], the “Predicted Hepatic Clearance (Pred. Cl.)” value was 17.8 mL/min/kg.

With `CC1(c2ccc(Cl)cc2F)Oc2cccc(-c3cc(F)c(Cc4nc5ccc(C(=O)O)cc5n4C[C@@H]4CCO4)cc3F)c2O1` (single isomer, unassigned) [Example 43], the EC50 at GLP-1R is 7.4 nM. For the same compound, the “Predicted Hepatic Clearance (Pred. Cl.)” value in series [1] is 4.67 mL/min/kg.

With `CC1(c2ccc(Cl)cc2F)Oc2cccc(-c3ccc(Cc4nc5ccc(C(=O)O)cc5n4CC4(n5ccnn5)CC4)c(F)c3)c2O1` (stereo not drawn) [Example 109, 1-((1-(1H-1,2,3-triazol-1-yl)cyclopropyl)methyl)-2-(4-(2-(4-chloro-2-fluorophenyl)-2-methylbenzo[d][1, 3]dioxol-4-yl)-2-fluorobenzyl)-1H-benzo[d]imidazole-6-carboxylic acid], the EC50 on GLP-1R was 9.1 nM. Besides, in series [1], the “Predicted Hepatic Clearance (Pred. Cl.)” value was 2.5 mL/min/kg.

Consider `COCCn1c(Cc2c(F)cc(-c3cccc4c3OC(C)(c3ccc(C#N)cc3F)O4)c(F)c2F)nc2ccc(C(=O)O)cc21` (single isomer, unassigned) [Example 96, 2-(4-(2-(4-cyano-2-fluorophenyl)-2-methylbenzo[d][1, 3]dioxol-4-yl)-2,3,6-trifluorobenzyl)-1-(2-methoxyethyl)-1H-benzo[d]imidazole-6-carboxylic acid], for which, on GLP-1R, the 50% effective concentration (EC50) was 57 nM. In addition, the “Predicted Hepatic Clearance (Pred. Cl.)” value in series [1] is 3.5 mL/min/kg.

As to `COCCn1c(Cc2c(F)cc(-c3cccc4c3OC(C)(c3ccc(C(F)(F)F)cc3F)O4)cc2F)nc2ccc(C(=O)O)cc21` (stereo not drawn) [Example 58, 2-(2,6-difluoro-4-(2-(2-fluoro-4-(trifluoromethyl)phenyl)-2-methylbenzo[d][1, 3]dioxol-4-yl)benzyl)-1-(2-methoxyethyl)-1H-benzo[d]imidazole-6-carboxylic acid], the EC50 on GLP-1R came out at 6.3 nM. The “Predicted Hepatic Clearance (Pred. Cl.)” value in series [1] is 3.17 mL/min/kg.

Regarding `COCCn1c(Cc2c(F)cc(-c3cccc4c3OC(C)(c3ccc(Cl)cn3)O4)cc2F)nc2ccc(C(=O)O)cc21` (stereo not drawn) [Example 65, 2-(4-(2-(5-chloropyridin-2-yl)-2-methylbenzo[d][1, 3]dioxol-4-yl)-2,6-difluorobenzyl)-1-(2-methoxyethyl)-1H-benzo[d]imidazole-6-carboxylic acid], on GLP-1R, the EC50 turned out to be 10 nM. In addition, the “Predicted Hepatic Clearance (Pred. Cl.)” value in series [1] was 3.3 mL/min/kg.

Consider `CC(=O)N1CC[C@@H]1Cn1c(Cc2ccc(-c3cccc4c3OC(C)(c3ccc(Cl)cc3F)O4)cc2F)nc2ccc(C(=O)O)cc21` (stereo partly drawn) [Example 108, 3-[[(2R)-1-acetylazetidin-2-yl]methyl]-2-[[4-[2-(4-chloro-2-fluoro-phenyl)-2-methyl-1,3-benzodioxol-4-yl]-2-fluoro-phenyl]methyl] benzimidazole-5-carboxylic acid], for which the EC50 on GLP-1R amounted to 4.3 nM. Also, the “Predicted Hepatic Clearance (Pred. Cl.)” value in series [1] is 2 mL/min/kg.

`N#Cc1ccc(C2Oc3cccc(-c4cc(F)c(Cc5nc6ccc(C(=O)O)cc6n5C[C@@H]5CCO5)c(F)c4)c3O2)c(F)c1` (single isomer, unassigned) [Example 42]: the half-maximal effective concentration (EC50) on GLP-1R is 1.1 nM. For the same compound, in series [1], the “Predicted Hepatic Clearance (Pred. Cl.)” value is 3.83 mL/min/kg.

As for `CC1(c2ccc(Cl)cn2)Oc2cccc(-c3cnc(Cc4nc5ccc(C(=O)O)cc5n4C[C@@H]4CCO4)c(F)c3)c2O1` (stereo partly drawn) [Example 14, 2-((5-(2-(5-chloropyridin-2-yl)-2-methylbenzo[d][1, 3]dioxol-4-yl)-3-fluoropyridin-2-yl)methyl)-1-(((S)-oxetan-2-yl)methyl)-1H-benzo[d]imidazole-6-carboxylic acid], the EC50 at GLP-1R amounted to 4.5 nM. Also, in series [1], the “Predicted Hepatic Clearance (Pred. Cl.)” value is 2.5 mL/min/kg.

In the case of `N#Cc1ccc(C2Oc3cccc(-c4cc(F)c(Cc5nc6ccc(C(=O)O)cc6n5C[C@@H]5CCO5)c(F)c4)c3O2)c(F)c1` (stereo partly drawn) [Example 30, (S)-2-(4-(2-(4-cyano-2-fluorophenyl)benzo [d][1,3]dioxol-4-yl)-2,6-difluorobenzyl)-1-(oxetan-2-ylmethyl)-1H-benzo[d]imidazole-6-carboxylic acid], the EC50 at GLP-1R came out at 1.9 nM. The “Predicted Hepatic Clearance (Pred. Cl.)” value in series [1] is 3.5 mL/min/kg.

The record behind these values is US20250099431A1, “GLP-1R MODULATING COMPOUNDS” (priority 2020, published 2025).
